The AC50 is the concentration at which the activity in the assay is half-maximal. By EC50 is commonly meant the concentration at which the effect is half-maximal. As usually defined, the IC50 is the concentration that inhibits the measured activity by half.

Data on five molecules can be found in ChEMBL document CHEMBL1201862, “PubChem BioAssay data set” (2004).

Data set [1] deals with Cytochrome P450 3A4 (Homo sapiens, UniProt P08684).
Data set [2] deals with T1, Luciferin 4-monooxygenase (Photinus pyralis, UniProt P08659). The data set can be described thus: Counter Screen for Luciferase-based Assay Positives. [Related pubchem assays: 620, 618, 411 ]. In general terms: A counterscreen serves to expose hits that act by an unwanted route or on another target.
The subject of data set [3] is HT-1080. The experiment in a line: HT1080 cell viability loss – fluorescence readout (AID 620). The data set is classed as functional, cell-based. Conditions: Homo sapiens.
Data set [4] deals with Jurkat. The experiment in a line: blockers of NF-kB activation in T cells – Jurkat, luciferase reporter, luminescence, B- and T-cell, dose response (AID 489004).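 Note: NF-kB luciferase reporter Jurkat cells stimulated with PMA plus ionomycin.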 The data set is classed as functional, cell-based. The settings on record: Homo sapiens. For orientation: In a reporter assay the amount or activity of a reporter protein is the signal.
Data set [5] is described as follows: HEK-293T viability loss, compound-treated – cell-based, uHTS hits, cytotoxicity control for B/T-cell NF-kB inhibitor project, dose response (AID 489019).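 Note: IC50 reflects cytotoxicity as loss of cell viability.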 The data set is classed as functional.
Data set [6] addresses T2, Microphthalmia-associated transcription factor (Homo sapiens, UniProt O75030).
T2 sequence (O75030 whole entry): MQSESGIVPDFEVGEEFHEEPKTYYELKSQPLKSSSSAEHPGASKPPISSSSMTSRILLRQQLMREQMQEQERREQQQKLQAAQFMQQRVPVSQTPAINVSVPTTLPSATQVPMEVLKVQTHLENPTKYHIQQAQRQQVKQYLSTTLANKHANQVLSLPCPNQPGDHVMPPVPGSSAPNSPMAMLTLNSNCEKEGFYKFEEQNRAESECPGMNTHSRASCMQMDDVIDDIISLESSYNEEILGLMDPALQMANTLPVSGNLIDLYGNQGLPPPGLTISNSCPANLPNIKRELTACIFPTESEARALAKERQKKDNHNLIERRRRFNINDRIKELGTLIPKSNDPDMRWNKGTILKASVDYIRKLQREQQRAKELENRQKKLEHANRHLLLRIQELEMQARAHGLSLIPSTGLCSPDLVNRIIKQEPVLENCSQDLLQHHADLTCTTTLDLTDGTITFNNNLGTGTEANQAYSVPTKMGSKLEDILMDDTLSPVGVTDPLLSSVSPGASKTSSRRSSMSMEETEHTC
The experiment in a line: reducers of TRPM1 reporter luminescence, concentration series – cell-based, SK-MEL-5, cherry-picked, set 3, MITF inhibitor project, dose response (AID 493073).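 Note: SK-MEL-5 melanoma cells with luciferase driven by the MITF target TRPM1 promoter.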 The data set is classed as functional.

For data set [7], the system named is A-375. The experiment in a line: MITF: Counter assay: A375 proliferation Measured in Cell-Based System Using Plate Reader - 2084-03_Inhibitor_Dose_DryPowder_Activity. [Related pubchem assays (depositor defined):AID488944]. The data set is classed as functional. The settings on record: Homo sapiens.
The test system of data set [8] is A-375. The data set can be described thus: proliferation inhibition in MITF-low A375 cells – cell-based, cherry-pick samples, set 2, counter-screen for MITF modulator project, dose response (AID 540335). The data set is classed as functional. The settings on record: Homo sapiens.
Data set [9] is described as follows: blockers of HIV-1 envelope-mediated cell-cell fusion – cherry-pick, dose response (AID 652057). The data set is classed as functional, cell-based.
Data set [10] can be described thus: blockers of HIV-1 ZM109 envelope-driven cell-cell fusion – HeLa effector, CEM target cells, luciferase, cherry-pick, dose response (AID 652058).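 Note: luciferase signal from HIV-1 Env mediated cell-cell fusion of effector and target cells.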 The data set is classed as functional, cell-based.
A short description of data set [11]: off-target signal loss in HeLa-CEM21 co-culture – HeLa F-luc CTL cells, cherry-picked, counter-screen for HIV-1 Env fusion inhibitor project, dose response (AID 652040).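 Note: potency for signal decrease marking cytotoxic or nonspecific inhibition.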 The data set is classed as functional, cell-based.
Data set [12] is described as follows: HIV-1 AD8 envelope cell-cell fusion blockers – cherry-pick, dose response (AID 652062).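 Note: luciferase signal from cell-cell fusion driven by HIV-1 clade B AD8 Env; potency is for inhibitors of fusion seen as a drop in luminescence.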 The data set is classed as functional, cell-based.
The target of data set [13] is T1, Luciferin 4-monooxygenase. The experiment in a line: inhibition of purified Photinus pyralis luciferase – biochemical, luminescence, dose response (AID 1891).
Data set [14] in a line: Luminescence Cell-Based Dose Confirmation HTS to Identify Inhibitors of Platelet Dense Granule Release. [Related pubchem assays: 1663 (Primary HTS), 1678 (Summary of Project)]. The data set is classed as functional.
Data set [15] has as its system HeLa. The data set can be described thus: ATP-based viability loss in HeLa cells – cell-based, CellTiter-Glo luminescence, cherry-pick samples, cytotoxicity control for MITF activator project, dose response (AID 540259). The data set is classed as functional. The settings on record: Homo sapiens. A general note: In ATP-based viability assays light output follows the ATP content of the culture.

For data set [16], the target named is T3, Mannose-6-phosphate isomerase (Homo sapiens, UniProt P34949).
T3 sequence (P34949 whole entry): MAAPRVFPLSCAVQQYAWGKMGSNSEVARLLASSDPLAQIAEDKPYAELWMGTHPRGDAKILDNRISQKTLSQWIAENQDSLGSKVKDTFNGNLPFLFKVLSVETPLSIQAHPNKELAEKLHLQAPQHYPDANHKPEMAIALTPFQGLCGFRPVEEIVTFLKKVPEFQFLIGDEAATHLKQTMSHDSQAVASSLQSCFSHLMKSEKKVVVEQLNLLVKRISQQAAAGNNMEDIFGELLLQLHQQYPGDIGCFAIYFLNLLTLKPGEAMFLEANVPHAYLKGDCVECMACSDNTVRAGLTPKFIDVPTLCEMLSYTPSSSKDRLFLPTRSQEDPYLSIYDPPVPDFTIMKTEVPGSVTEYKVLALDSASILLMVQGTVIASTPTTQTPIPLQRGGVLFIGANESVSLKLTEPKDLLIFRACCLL
The experiment in a line: MPI enzyme activity inhibition – biochemical, fluorescence intensity, coupled assay, primary screen (AID 1209).

In data set [17] the target is T4, Calpain-2 catalytic subunit (Sus scrofa, UniProt P43367).
T4 sequence (P43367 whole entry): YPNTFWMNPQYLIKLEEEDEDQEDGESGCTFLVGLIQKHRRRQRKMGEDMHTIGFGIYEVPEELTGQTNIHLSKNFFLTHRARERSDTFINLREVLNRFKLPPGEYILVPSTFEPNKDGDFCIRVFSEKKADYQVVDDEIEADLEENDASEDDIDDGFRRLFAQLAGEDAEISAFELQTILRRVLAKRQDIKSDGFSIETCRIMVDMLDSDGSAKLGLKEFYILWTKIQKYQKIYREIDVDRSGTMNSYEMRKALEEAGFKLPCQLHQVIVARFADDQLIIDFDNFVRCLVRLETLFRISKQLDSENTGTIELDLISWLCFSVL
The data set can be described thus: m-calpain protease blockers, concentration series – biochemical, fluorogenic peptide substrate, dose response (AID 1420). The data set is classed as functional.

Data set [18] concerns the target Intestinal-type alkaline phosphatase (Mus musculus, UniProt P24822). The data set can be described thus: PubChem AID 488874. The data set is classed as functional.
Data set [19] deals with T5, Intestinal-type alkaline phosphatase (Homo sapiens, UniProt P09923). The experiment in a line: inhibition of human intestinal alkaline phosphatase – biochemical, luminescent, uHTS hits, set 2, dose response (AID 488793). The data set is classed as functional.
Data set [20] concerns the target T5, Intestinal-type alkaline phosphatase. The data set can be described thus: Dose Response confirmation of uHTS hits from a small molecule inhibitors of human intestinal alkaline phosphatase via a luminescent assay. [Related pubchem assays (depositor defined):AID2544, AID2574]. The data set is classed as functional.
Data set [21] addresses Eukaryotic translation initiation factor 4E (Mus musculus, UniProt P63073). The data set can be described thus: blockers of eIF4G binding by eIF4E – biochemical, TR-FRET, dose response (AID 855).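 Note: potency for disrupting eIF4E binding to eIF4GI seen as loss of FRET.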 The data set is classed as functional.
For data set [22], the target named is T6, Alkaline phosphatase, tissue-nonspecific isozyme (Homo sapiens, UniProt P05186).
T6 sequence (P05186 whole entry): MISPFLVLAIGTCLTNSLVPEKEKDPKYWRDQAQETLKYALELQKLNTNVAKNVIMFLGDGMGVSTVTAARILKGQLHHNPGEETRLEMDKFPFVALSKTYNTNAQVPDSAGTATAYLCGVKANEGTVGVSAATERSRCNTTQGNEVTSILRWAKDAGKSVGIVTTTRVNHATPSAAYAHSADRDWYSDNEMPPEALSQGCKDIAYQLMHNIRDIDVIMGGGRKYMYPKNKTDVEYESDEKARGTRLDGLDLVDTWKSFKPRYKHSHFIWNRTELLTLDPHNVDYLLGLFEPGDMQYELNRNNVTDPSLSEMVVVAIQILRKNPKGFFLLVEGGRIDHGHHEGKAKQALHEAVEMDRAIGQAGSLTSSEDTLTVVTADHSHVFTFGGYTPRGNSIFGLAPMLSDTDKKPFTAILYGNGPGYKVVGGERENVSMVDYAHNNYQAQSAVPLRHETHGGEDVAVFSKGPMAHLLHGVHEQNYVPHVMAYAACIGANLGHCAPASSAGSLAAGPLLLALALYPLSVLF
The data set can be described thus: inhibition of tissue-nonspecific alkaline phosphatase – biochemical, dose response (AID 488882). The data set is classed as functional.

Data set [23] addresses T7, Histone-lysine N-methyltransferase NSD2 (Homo sapiens, UniProt O96028).
T7 sequence (O96028 whole entry): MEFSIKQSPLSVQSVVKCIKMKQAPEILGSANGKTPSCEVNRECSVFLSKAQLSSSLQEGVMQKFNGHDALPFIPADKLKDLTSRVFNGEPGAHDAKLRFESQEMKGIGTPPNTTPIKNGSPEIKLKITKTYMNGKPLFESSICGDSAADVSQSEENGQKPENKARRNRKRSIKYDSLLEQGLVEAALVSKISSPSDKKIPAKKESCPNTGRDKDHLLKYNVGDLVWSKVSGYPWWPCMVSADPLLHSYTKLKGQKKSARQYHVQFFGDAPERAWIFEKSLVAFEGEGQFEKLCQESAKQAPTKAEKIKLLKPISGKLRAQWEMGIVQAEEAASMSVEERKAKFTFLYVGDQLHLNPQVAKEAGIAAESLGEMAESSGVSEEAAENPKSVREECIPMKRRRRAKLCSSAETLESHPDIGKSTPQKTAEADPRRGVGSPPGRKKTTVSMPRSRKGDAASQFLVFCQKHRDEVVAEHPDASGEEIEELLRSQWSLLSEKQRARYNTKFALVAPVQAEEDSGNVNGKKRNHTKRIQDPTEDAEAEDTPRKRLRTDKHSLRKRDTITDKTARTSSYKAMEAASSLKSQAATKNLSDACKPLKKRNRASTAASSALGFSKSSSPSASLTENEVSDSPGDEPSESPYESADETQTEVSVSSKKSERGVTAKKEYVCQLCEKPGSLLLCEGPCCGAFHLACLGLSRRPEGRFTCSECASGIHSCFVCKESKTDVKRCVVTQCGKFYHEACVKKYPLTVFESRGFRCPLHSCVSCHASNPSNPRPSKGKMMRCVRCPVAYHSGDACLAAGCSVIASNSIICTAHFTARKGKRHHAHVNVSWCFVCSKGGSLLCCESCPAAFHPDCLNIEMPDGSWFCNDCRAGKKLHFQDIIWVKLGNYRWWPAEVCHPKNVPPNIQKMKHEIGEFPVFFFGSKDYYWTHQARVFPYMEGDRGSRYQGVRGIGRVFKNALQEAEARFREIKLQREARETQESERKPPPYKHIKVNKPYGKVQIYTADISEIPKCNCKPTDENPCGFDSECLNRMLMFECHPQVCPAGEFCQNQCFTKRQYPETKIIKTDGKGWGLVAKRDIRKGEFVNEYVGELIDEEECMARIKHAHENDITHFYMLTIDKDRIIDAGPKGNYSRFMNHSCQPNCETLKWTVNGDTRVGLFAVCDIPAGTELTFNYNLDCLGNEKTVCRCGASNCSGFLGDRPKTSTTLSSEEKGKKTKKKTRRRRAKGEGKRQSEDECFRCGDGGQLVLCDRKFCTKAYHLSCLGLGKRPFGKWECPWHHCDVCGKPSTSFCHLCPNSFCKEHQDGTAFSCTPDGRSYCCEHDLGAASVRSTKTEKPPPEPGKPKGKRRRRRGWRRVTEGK
The data set is classed as biochemical.

Data set [24] is described as follows: Luminescence Cell-Based Dose Retest to Confirm Inhibitors of Cancer Stem Cells. [Related pubchem assays (depositor defined):AID2717, AID2721]. The data set is classed as functional. The settings on record: Homo sapiens.
Data set [25] can be described thus: viability loss of HMLE_sh_eGFP cells – cell-based, luminescence, counter-screen for HMLE_sh_ECad selective toxicity project, dose response (AID 463074).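 Note: HMLE human mammary epithelial cells expressing control shRNA against eGFP.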 The data set is classed as functional, Homo sapiens.

Calls of active or inactive are those of the source. Some results are limits rather than exact numbers.

T5 sequence (P09923 whole entry): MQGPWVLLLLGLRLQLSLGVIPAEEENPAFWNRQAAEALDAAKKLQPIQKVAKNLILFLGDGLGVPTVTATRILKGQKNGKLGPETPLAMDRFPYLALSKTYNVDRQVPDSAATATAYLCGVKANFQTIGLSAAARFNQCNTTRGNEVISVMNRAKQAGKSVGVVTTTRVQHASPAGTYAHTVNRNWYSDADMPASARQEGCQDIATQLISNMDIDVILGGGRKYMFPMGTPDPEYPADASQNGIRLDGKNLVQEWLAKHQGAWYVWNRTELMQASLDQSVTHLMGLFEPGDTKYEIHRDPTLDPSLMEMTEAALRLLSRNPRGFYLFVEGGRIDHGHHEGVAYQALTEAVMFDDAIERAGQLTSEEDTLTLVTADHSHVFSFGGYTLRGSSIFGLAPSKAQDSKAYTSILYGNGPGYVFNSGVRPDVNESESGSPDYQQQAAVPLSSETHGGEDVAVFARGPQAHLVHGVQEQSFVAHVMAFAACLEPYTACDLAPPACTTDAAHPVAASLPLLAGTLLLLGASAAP
T1 sequence (P08659 whole entry): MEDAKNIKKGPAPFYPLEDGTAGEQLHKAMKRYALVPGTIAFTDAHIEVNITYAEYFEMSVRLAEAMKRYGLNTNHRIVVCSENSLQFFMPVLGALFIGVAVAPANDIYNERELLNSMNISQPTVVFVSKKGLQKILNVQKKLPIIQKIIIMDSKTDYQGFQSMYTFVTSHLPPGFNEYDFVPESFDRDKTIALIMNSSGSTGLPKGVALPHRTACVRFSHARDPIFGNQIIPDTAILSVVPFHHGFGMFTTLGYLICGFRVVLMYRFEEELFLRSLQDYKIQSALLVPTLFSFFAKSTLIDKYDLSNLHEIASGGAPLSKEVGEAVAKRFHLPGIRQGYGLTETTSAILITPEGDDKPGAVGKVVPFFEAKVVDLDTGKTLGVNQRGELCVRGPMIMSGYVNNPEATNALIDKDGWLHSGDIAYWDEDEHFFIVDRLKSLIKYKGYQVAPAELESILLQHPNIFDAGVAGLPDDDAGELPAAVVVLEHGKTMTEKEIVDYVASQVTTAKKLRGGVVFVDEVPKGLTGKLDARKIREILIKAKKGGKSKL
Chain of Cytochrome P450 3A4 (P08684 whole entry): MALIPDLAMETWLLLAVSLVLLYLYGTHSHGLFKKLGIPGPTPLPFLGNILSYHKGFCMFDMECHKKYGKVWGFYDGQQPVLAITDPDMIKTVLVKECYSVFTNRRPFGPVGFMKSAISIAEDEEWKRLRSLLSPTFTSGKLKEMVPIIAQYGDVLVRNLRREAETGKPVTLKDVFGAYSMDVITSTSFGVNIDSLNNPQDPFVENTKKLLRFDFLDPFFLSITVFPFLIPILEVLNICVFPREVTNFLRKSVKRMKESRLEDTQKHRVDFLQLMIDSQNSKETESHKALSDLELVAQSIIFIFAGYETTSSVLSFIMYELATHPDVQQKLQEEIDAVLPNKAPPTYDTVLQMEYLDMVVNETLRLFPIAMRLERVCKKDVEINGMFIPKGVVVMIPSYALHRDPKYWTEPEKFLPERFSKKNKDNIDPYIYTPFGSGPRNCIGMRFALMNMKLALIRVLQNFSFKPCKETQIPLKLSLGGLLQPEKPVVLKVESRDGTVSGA
Chain of Intestinal-type alkaline phosphatase (Mus musculus, UniProt P24822) (P24822 whole entry): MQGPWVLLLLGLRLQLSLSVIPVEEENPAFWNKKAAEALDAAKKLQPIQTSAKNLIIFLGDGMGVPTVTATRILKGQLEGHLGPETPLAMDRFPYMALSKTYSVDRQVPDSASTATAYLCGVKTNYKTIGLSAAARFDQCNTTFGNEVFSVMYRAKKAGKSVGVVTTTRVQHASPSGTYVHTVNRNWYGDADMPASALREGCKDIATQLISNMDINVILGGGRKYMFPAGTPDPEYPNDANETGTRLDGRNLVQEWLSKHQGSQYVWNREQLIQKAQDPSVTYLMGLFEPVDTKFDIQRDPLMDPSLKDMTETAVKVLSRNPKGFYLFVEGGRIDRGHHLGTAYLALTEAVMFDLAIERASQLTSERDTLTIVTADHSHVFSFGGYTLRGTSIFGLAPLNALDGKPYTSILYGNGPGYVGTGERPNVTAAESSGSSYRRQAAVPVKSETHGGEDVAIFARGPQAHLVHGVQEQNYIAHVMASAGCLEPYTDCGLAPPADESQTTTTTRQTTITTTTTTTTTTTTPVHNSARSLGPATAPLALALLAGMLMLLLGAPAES
Chain of Eukaryotic translation initiation factor 4E (P63073 whole entry): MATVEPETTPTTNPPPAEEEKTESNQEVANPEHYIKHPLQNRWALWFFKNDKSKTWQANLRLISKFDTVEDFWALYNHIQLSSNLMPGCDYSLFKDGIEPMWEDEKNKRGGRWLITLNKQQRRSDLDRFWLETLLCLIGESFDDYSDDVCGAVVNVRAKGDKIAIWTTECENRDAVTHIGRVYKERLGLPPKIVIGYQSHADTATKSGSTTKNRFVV

For `O=C(c1cc(C(F)(F)F)cc(C(F)(F)F)c1)N1CCC2(CC1)CN(c1ccccc1)C2`, the half-maximal activity concentration (AC50) result in [1] is listed as “inconclusive”.
As to `CC(C)(C)c1ccc(C(=O)N2CCCCCC2=O)cc1`, the EC50 in data set [2] is 1.5 µM (active); in data set [3], > 50 µM (not active). The concentration for half-maximal inhibition (IC50) is 0.38 µM (active) in [4] and > 80 µM (inactive) in data set [5]. The AC50 was 1.12 µM (active) in data set [6]; > 35 µM (active) in data set [7]; > 35 µM (active) in data set [8]; 2.77 µM (active) in [9]; 0.611 µM (active) in data set [10]; 1.73 µM (active) in [11]. Also, the AC50 in data set [12] was 4.27 µM (active).
As for `COc1ccc(C(=O)Nc2cc(OC)nc(OC)n2)cc1`, the results for the EC50 in data set [13] and in [14] were 16.3 µM (active) and 8.79 µM (active), respectively. Also, the AC50 in data set [15] was 178 µM (active).
For the molecule `CC[n+]1c(/C=C/c2c[nH]c3ccccc23)ccc2cc(C)ccc21`, the IC50 is > 50 µM (not active) in data set [16]; 24.6 µM (not active) in [17]; 11 µM (active) in data set [18]; 10.2 µM (active) in [19]; 9.63 µM (active) in [20]; 50 µM (inactive) in [21]. Also, the IC50 in [22] is 10.8 µM (active). Further, the AC50 in [23] was > 20 µM (inactive).
With `CN(c1ccccc1)c1ccc(/C=C(\C#N)c2nnc3n2CCCCC3)cc1[N+](=O)[O-]`, the AC50 in [24] was 0.597 µM (active); in data set [25] it was 24.3 µM (active).
